Tests used:
sperm nuclei = assay: DNA replication of sperm nuclei in Xenopus S-phase egg extract (32P-dCTP incorporation, TCA precipitation); type: biochemical; conditions: for replication rate of sperm chromatin: 300 μM TSA and 300 μM CTPB
Experimental: (§1) 5 μl samples were taken at different times and DNA replication was monitored by TCA precipitation of ^32PαdCTP incorporated into DNA.
Sperm chromatin was incubated in S-phase extract in the presence of 50 μg/ml ICRF193 at the beginning of the reaction or after 45 min (during the elongation phase). DNA replication was monitored by TCA precipitation of the replicated DNA.
(§2) Demembranated sperm nuclei were prepared and used as described in (Menut et al., 1999), and erythrocyte nuclei were purified from Xenopus blood as described. Nuclei were incubated in S-phase (1,000 nuclei/μl), or M-phase (CSF) extracts that were activated with 1 mM CaCl2. DNA synthesis was measured by ^32P-dCTP incorporation, as previously described (Menut et al., 1999).

erythrocyte nuclei = assay: DNA replication of erythrocyte nuclei in Xenopus egg extracts (32P-dCTP incorporation, TCA precipitation); type: biochemical; conditions: for replication rate of erythrocyte nuclei: permeabilized erythrocyte nuclei in S-phase extract, 300 μM TSA, 600 μM CTPB or 300 μM AA
Experimental: FIG. 1B: Permeabilized erythrocyte nuclei were incubated in S-phase or M-phase extract for 45 minutes before CaCl2 activation to trigger S phase. 5 μl samples were taken at different times. DNA replication was monitored by TCA precipitation of ^32PαdCTP incorporated into DNA and expressed as the percentage replicated DNA compared to the total input DNA. Sperm nuclei incubated in S-phase extract were used as a control.
as §1
FIG. 5A: Erythrocyte chromatin was incubated either in M-phase extract and immediately driven into S phase by Ca^++, or in M-phase extract for 45 min before induction into S phase by Ca^++ in the absence or presence of ICRF. Control sperm chromatin in M-phase extracts induced to enter S phase by calcium is shown. The amount of nuclei was 1000 nuclei/μl egg extract for sperm nuclei, and 500 nuclei/μl egg extract for erythrocyte nuclei to keep the chromatin concentration constant.
as §2

[1] = tested on: erythrocyte or sperm nuclei; assay: Chromosome condensation of nuclei in mitotic egg extract (Hoechst staining); type: biochemical, Xenopus; conditions: erythrocyte or sperm nuclei in M-phase extract; 50 μg/ml
Experimental: FIG. 5B: Demembranated erythrocyte nuclei or sperm nuclei were incubated in a mitotic egg extract in the presence or absence of 50 μg/ml of the topoisomerase II inhibitor ICRF193. DNA was stained with Hoechst dye for chromosome formation analysis.

ORC2 = ORC2 recruitment to chromatin (chromatin purification, anti ORC2 immunoblot); type: biochemical, Xenopus
Experimental: FIG. 5C: Chromatin was purified and proteins analyzed by SDS gel electrophoresis as described in Material and Methods. Erythrocyte nuclei (500 nuclei/μl egg extract) or sperm nuclei (1000 nuclei/μl egg extract) were incubated in a mitotic egg extract, induced to enter S phase with calcium, in the presence (+) or absence (−) of ICRF 193. Chromatin was purified 30 min after calcium activation and analyzed by immunoblot with a Xenopus anti ORC2 antibody.
50 μl samples were diluted with 5 volumes of extract buffer (XB: 100 mM KCl, 0.1 mM CaCl2, 1 mM MgCl2, 10 mM KOH-Hepes pH 7.7, 50 mM sucrose) and pelleted by centrifugation at 7500 g for 12 min through a 0.7 M sucrose cushion. Nuclear pellets were resuspended in XB, 0.3% Triton X-100 and incubated for 5 min on ice. After a further 5,000 g centrifugation for 5 min, chromatin pellets were recovered and adjusted in Laemmli Buffer.

chromatin loop domains = assay: DNA loop size by maximum fluorescent halo technique (MFHT); type: biochemical, Xenopus
Experimental: FIG. 4D: Nuclei were recovered on coverslips and submitted to the maximum fluorescent halo technique (MFHT) for DNA loop size measurements (Material and Methods).
FIG. 7C: Sperm nuclei collected at different times during replication or following M-phase were recovered on coverslips and submitted to MFHT for DNA loop size measurements. Entry into mitosis was induced by incubating post-replicate embryo nuclei in M-phase extract in the presence or absence of ICRF.
Maximum Fluorescent Halo Radius (MFHR) were determined by treating non-fixed nuclei on coverslips. They were first dipped for 1 min in ice cold NP40 buffer (0.5% NP40, 10 mM MgCl2, 0.5 mM CaCl2, 50 mM Hepes pH 7.8) and then sequentially dipped for 30 s in a solution containing 0.2 mM MgCl2, 10 mM Tris (pH 7.4) with 0.5 M, 1 M, 1.5 M, 2 M NaCl. They were then incubated in 100 μg/ml ethidium bromide, 2 M NaCl and exposed for 1 min to short wave UV light before observation by fluorescence (Buongiorno-Nardelli et al., 1982). Halo and matrix diameters were estimated using a micrometrics slide. DNA loop size was calculated taking into account that the loop size is 2 fold the MFHR. The length of linear DNA was calculated using the correspondence of 1 μm to 2.3 kbp.

[2] = inhibitor present during mitotic remodeling in M-phase extract, chromatin purified 30 min after calcium activation
[3] = sperm nuclei in S-phase extract

ICRF 193
DNA replication of sperm chromatin (sperm nuclei; S-phase extract, 50 μg/ml at the beginning of the reaction or after 45 min): does not interfere with DNA replication | rate of replication of erythrocyte nuclei (erythrocyte nuclei; 45 min in M-Phase extract containing ICRF 193 before S phase induction): very low rate of replication | chromosome condensation [1]: prevented chromosome condensation | ORC recruitment (ORC2; inhibition of loop size remodeling, post-replicative embryonic nuclei and erythrocyte nuclei): decreases | recruitment of ORC2 onto erythrocyte chromatin for the subsequent S-phase (ORC2; [2]): dramatically reduced | recruitment of ORC2 onto sperm chromatin for the subsequent S-phase (ORC2; [2]): not | mitotic remodeling (loop size reduction) of post-replicative nuclei (chromatin loop domains; post-replicative embryonic nuclei in M-phase extract): blocked | S-phase dependent increase in loop size (chromatin loop domains; sperm nuclei during replication in S phase, data not shown): prevented

CCCCCCCCCCCCCCCc1cccc(OCC)c1C(=O)Nc1ccc(Cl)c(C(F)(F)F)c1 [CTPB]
reversal of AA inhibition of sperm nuclei replication (sperm nuclei; S-phase extract, prior incubation of 600 μM CTPB, 300 μM AA): reversed | replication rate of sperm chromatin (sperm nuclei; [3]): no significant effect | replication rate of erythrocyte nuclei (erythrocyte nuclei): failed to significantly affect

CCCCCCCCCCCCCCCc1cccc(O)c1C(=O)O [AA, anacardic acid]
replication of sperm nuclei (sperm nuclei; sperm nuclei in S-phase extract, 300 μM AA): strongly inhibited | sensitivity of replication of erythrocyte nuclei remodeled in mitosis (erythrocyte nuclei; 45 min in M-phase extract, then S-phase extract containing 300 μM AA): as sensitive as sperm nuclei | replication rate of erythrocyte nuclei (erythrocyte nuclei): did not further inhibit

CC(/C=C/C(=O)NO)=C\[C@@H](C)C(=O)c1ccc(N(C)C)cc1 [TSA, trichostatin]
replication rate of sperm chromatin (sperm nuclei; [3]): no significant effect | replication rate of erythrocyte nuclei (erythrocyte nuclei): failed to significantly affect
